Measured values from ChEMBL document CHEMBL5055619, “Tetrahydrofuran-Based Transient Receptor Potential Ankyrin 1 (TRPA1) Antagonists: Ligand-Based Discovery, Activity in a Rodent Asthma Model, and Mechanism-of-Action via Cryogenic Electron Microscopy” (J Med Chem, 2021).
pEC50, pIC50: −log10 of the molar value. In brackets after ≈: the same amount, converted by molar mass.

Legend:
[1] = Metabolic stability in human liver microsomes assessed as clearance by LC/MS-MS analysis; type: ADME, Microsome
[2] = Antagonist activity at human TRPA1 expressed in CHO cells assessed as cinnamaldehyde-induced calcium flux measured after 90 mins by FLIPR assay; type: cell-based; details: 1.5 h
[3] = Lipophilicity, logD of compound; type: physicochemical; details: octanol/water
[4] = Metabolic stability in rat liver microsomes assessed as clearance by LC/MS-MS analysis; type: ADME, Microsome
[5] = Half life in rat at 1 mg/kg; type: ADME, organism-based; details: in vivo
[6] = Metabolic stability in rat hepatocytes assessed as clearance; type: ADME, cell-based, Hepatocyte
[7] = Volume of distribution at steady stare in rat at 1 mg/kg; type: ADME, organism-based; details: in vivo, read-out: Vdss
[8] = Protein binding in rat plasma; type: ADME, cell-free; details: read-out: PPB (converted)
[9] = Clearance in rat at 1 mg/kg; type: ADME, organism-based; details: in vivo
[10] = species on record: Rattus norvegicus; assay: Antinociceptive activity against AITC-induced rat pain model assessed as nocifensive behaviour by measuring unbound concentration; type: functional, organism-based
[11] = biological target: Transient receptor potential cation channel subfamily A member 1 (Rattus norvegicus) (UniProt Q6RI86); assay: In vivo antagonist activity at TRPA1 in AITC-induced rat pain model assessed as nocifensive behaviour at 0.36 ratio of free plasma concentration to IC50 for rat […]; type: functional, organism-based; details: concentration not given here
Transient receptor potential cation channel subfamily A member 1 (Rattus norvegicus), sequence (Q6RI86 whole entry): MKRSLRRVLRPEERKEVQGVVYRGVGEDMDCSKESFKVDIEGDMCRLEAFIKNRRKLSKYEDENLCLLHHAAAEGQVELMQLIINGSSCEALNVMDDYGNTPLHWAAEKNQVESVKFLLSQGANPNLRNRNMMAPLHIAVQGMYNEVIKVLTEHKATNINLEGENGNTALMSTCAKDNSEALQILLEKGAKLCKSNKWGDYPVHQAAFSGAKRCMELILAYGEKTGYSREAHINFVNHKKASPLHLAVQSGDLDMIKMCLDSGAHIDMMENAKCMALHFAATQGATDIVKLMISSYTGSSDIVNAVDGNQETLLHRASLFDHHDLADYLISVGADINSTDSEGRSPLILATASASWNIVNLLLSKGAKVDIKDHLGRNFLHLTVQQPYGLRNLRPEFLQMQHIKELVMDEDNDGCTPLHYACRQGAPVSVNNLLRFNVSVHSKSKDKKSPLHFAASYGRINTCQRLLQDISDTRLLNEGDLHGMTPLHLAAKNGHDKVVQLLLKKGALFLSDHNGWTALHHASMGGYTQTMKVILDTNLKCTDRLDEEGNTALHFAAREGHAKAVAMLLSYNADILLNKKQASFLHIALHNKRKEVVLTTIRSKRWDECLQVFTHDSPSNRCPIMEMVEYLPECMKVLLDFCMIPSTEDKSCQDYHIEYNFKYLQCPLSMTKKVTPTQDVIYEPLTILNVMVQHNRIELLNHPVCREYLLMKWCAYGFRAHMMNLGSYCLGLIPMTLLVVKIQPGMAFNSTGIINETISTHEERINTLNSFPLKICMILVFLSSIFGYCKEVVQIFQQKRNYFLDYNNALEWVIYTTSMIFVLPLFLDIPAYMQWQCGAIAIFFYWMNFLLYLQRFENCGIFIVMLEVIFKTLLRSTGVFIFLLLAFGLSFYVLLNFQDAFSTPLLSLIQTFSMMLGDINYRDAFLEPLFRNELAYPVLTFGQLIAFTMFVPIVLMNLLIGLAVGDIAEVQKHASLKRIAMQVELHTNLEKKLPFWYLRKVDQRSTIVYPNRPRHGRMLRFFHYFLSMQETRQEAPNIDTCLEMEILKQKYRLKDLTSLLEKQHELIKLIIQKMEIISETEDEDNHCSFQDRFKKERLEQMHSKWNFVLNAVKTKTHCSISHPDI

[12] = Kinetic solubility of the compound; type: physicochemical; details: for solubility kinetic: read-out: Kinetic_solubility
[13] = Unbound Volume of distribution at steady state in rat at 1 mg/kg; type: ADME, organism-based; details: in vivo
[14] = Oral bioavailability in rat at 1 mg/kg; type: ADME, organism-based; details: in vivo
[15] = biological target: Transient receptor potential cation channel subfamily A member 1 (Rattus norvegicus) (UniProt Q6RI86); assay: In vivo antagonist activity at TRPA1 in AITC-induced rat pain model assessed as nocifensive behaviour at 4.45 ratio of free plasma concentration to IC50 for rat […]; type: functional, organism-based; details: concentration not given here
[16] = Apparent permeability across apical to basolateral side in MDCK cells; type: ADME, cell-based, Canis lupus familiaris; details: dog, read-out: permeability
[17] = biological target: Transient receptor potential cation channel subfamily A member 1 (Rattus norvegicus) (UniProt Q6RI86); assay: In vivo antagonist activity at TRPA1 in AITC-induced rat pain model assessed as nocifensive behaviour at 1.21 ratio of free plasma concentration to IC50 for rat […]; type: functional, organism-based; details: concentration not given here
[18] = biological target: Transient receptor potential cation channel subfamily A member 1 (Rattus norvegicus) (UniProt Q6RI86); assay: In vivo antagonist activity at TRPA1 in AITC-induced rat pain model assessed as nocifensive behaviour at 2.97 ratio of free plasma concentration to IC50 for rat […]; type: functional, organism-based; details: concentration not given here
[19] = Antagonist activity at rat TRPA1 expressed in CHO cells assessed as cinnamaldehyde-induced calcium flux measured after 90 mins by FLIPR assay; type: cell-based; details: 1.5 h
[20] = Protein binding in human plasma; type: ADME, cell-free; details: read-out: PPB (converted)
[21] = biological target: Transient receptor potential cation channel subfamily A member 1 (Rattus norvegicus) (UniProt Q6RI86); assay: In vivo antagonist activity at TRPA1 in AITC-induced rat pain model assessed as nocifensive behaviour at 0.53 ratio of free plasma concentration to IC50 for rat […]; type: functional, organism-based; details: concentration not given here
[22] = biological target: Transient receptor potential cation channel subfamily A member 1 (Rattus norvegicus) (UniProt Q6RI86); assay: In vivo antagonist activity at TRPA1 in AITC-induced rat pain model assessed as nocifensive behaviour at 3.17 ratio of free plasma concentration to IC50 for rat […]; type: functional, organism-based; details: concentration not given here
[23] = biological target: Transient receptor potential cation channel subfamily A member 1 (Rattus norvegicus) (UniProt Q6RI86); assay: In vivo antagonist activity at TRPA1 in AITC-induced rat pain model assessed as nocifensive behaviour at 0.17 ratio of free plasma concentration to IC50 for rat […]; type: functional, organism-based; details: concentration not given here
[24] = biological target: Transient receptor potential cation channel subfamily A member 1 (Rattus norvegicus) (UniProt Q6RI86); assay: In vivo antagonist activity at TRPA1 in AITC-induced rat pain model assessed as nocifensive behaviour at 0.10 ratio of free plasma concentration to IC50 for rat […]; type: functional, organism-based; details: concentration not given here
[25] = Stability in rat plasma assessed as compound remaining after 4 hrs; type: ADME, cell-free; details: read-out: Stability
[26] = Stability in human plasma assessed as compound remaining after 4 hrs; type: ADME, cell-free; details: read-out: Stability
[27] = biological target: Transient receptor potential cation channel subfamily A member 1 (Rattus norvegicus) (UniProt Q6RI86); assay: In vivo antagonist activity at TRPA1 in AITC-induced rat pain model assessed as nocifensive behaviour at 2.94 ratio of free plasma concentration to IC50 for rat […]; type: functional, organism-based; details: concentration not given here
[28] = biological target: Transient receptor potential cation channel subfamily A member 1 (Rattus norvegicus) (UniProt Q6RI86); assay: In vivo antagonist activity at TRPA1 in AITC-induced rat pain model assessed as nocifensive behaviour at 12.67 ratio of free plasma concentration to IC50 for rat […]; type: functional, organism-based; details: concentration not given here
[29] = biological target: Transient receptor potential cation channel subfamily A member 1 (Rattus norvegicus) (UniProt Q6RI86); assay: In vivo antagonist activity at TRPA1 in AITC-induced rat pain model assessed as nocifensive behaviour at 43.69 ratio of free plasma concentration to IC50 for rat […]; type: functional, organism-based; details: concentration not given here
[30] = biological target: Transient receptor potential cation channel subfamily A member 1 (Rattus norvegicus) (UniProt Q6RI86); assay: In vivo antagonist activity at TRPA1 in AITC-induced rat pain model assessed as nocifensive behaviour at 0.86 ratio of free plasma concentration to IC50 for rat […]; type: functional, organism-based; details: concentration not given here
[31] = biological target: Transient receptor potential cation channel subfamily A member 1 (Rattus norvegicus) (UniProt Q6RI86); assay: In vivo antagonist activity at TRPA1 in AITC-induced rat pain model assessed as nocifensive behaviour at 21.57 ratio of free plasma concentration to IC50 for rat […]; type: functional, organism-based; details: concentration not given here
[32] = biological target: Transient receptor potential cation channel subfamily A member 1 (Rattus norvegicus) (UniProt Q6RI86); assay: In vivo antagonist activity at TRPA1 in AITC-induced rat pain model assessed as nocifensive behaviour at 44.77 ratio of free plasma concentration to IC50 for rat […]; type: functional, organism-based; details: concentration not given here
[33] = biological target: Transient receptor potential cation channel subfamily A member 1 (Rattus norvegicus) (UniProt Q6RI86); assay: In vivo antagonist activity at TRPA1 in AITC-induced rat pain model assessed as nocifensive behaviour at 0.76 ratio of free plasma concentration to IC50 for rat […]; type: functional, organism-based; details: concentration not given here
[34] = biological target: Transient receptor potential cation channel subfamily A member 1 (Rattus norvegicus) (UniProt Q6RI86); assay: In vivo antagonist activity at TRPA1 in AITC-induced rat pain model assessed as nocifensive behaviour at 8 ratio of free plasma concentration to IC50 for rat […]; type: functional, organism-based

With `Cn1cnc2ncn(Cc3nn([C@H]4C[C@H](Oc5cccc(Cl)c5)C4)c(=O)o3)c(=O)c21` the CLhep predicted [1] was 6 mL/min/kg, the pIC50 [2] was 8.14 and the logD [3] was 2.2. For the same molecule, the CLhep predicted [4] was 11 mL/min/kg.
`Cn1cnc2ncn(Cc3nc([C@H]4[C@@H]5CN(c6cccc(Cl)c6)C[C@@H]54)no3)c(=O)c21` showed a half-life [5] of 6.4 h, a CLhep predicted [6] of 35 mL/min/kg and a Vd [7] of 2.3 L/kg. It also gave a fraction unbound [8] of 0.018, a clearance [9] of 4.5 mL/min/kg and a pEC50 [10] of 8.10. It also gave an inhibition [11] of 12%, a pIC50 [2] of 8.54 and a Kinetic_solubility [12] of 97 µM. The Vduss [13] was 128 L/kg, the bioavailability [14] was 20% and the inhibition [15] was 99%. It also gave a Papp A→B [16] of 15.5 ×10⁻⁶ cm/s, a logD [3] of 2.9 and an inhibition [17] of 64%. It also gave an inhibition [18] of 99%, a pIC50 [19] of 8.10 and a fraction unbound [20] of 0.011.
`Cn1cnc2ncn(Cc3nn([C@@H]4CC[C@@H](Oc5cccc(F)c5)C4)c(=O)o3)c(=O)c21` showed a CLhep predicted [1] of 8 mL/min/kg, a pIC50 [2] of 6.39 and a logD [3] of 1.8. It also gave a CLhep predicted [4] of 24 mL/min/kg.
With `Cn1cnc2ncn(Cc3nn(CCOc4cccc(Cl)c4)c(=O)o3)c(=O)c21` the CLhep predicted [1] was 11 mL/min/kg, the pIC50 [2] was 5.34 and the logD [3] was 1.3. For the same molecule, the CLhep predicted [4] was 34 mL/min/kg.
With `Cc1cnn2ncn(Cc3nc([C@H]4[C@@H]5CN(c6cccc(Cl)c6)C[C@@H]54)no3)c(=O)c12` the half-life [5] was 2.5 h, the CLhep predicted [6] was 43 mL/min/kg and the Vd [7] was 2.8 L/kg. The fraction unbound [8] was 0.02, the CLhep predicted [1] was 15 mL/min/kg and the clearance [9] was 15 mL/min/kg. For the same molecule, the pEC50 [10] was 8.21, the pIC50 [2] was 8.09 and the inhibition [21] was 63%. It also gave an inhibition [22] of 87%, a solubility kinetic [12] of 13 µM (≈ 5.51 µg/mL) and a Vduss [13] of 140 L/kg. The bioavailability [14] was 32%, the inhibition [23] was 36% and the Papp A→B [16] was 20.7 ×10⁻⁶ cm/s. For the same molecule, the logD [3] was 3, the inhibition [24] was 30% and the CLhep predicted [4] was 32 mL/min/kg. The pIC50 [19] was 8.09 and the fraction unbound [20] was 0.009.
Work on `Cn1cnc2ncn(Cc3nn([C@@H]4CO[C@@H](c5ccc(Cl)cc5)C4)c(=O)o3)c(=O)c21` yielded a remaining at 4 h [25] of 61%, a CLhep predicted [1] of 9.5 mL/min/kg and a pIC50 [2] of 8.70. For the same molecule, the logD [3] was 1.6, the remaining at 4 h [26] was 76% and the CLhep predicted [4] was 23 mL/min/kg.
Work on `Cc1ncn2ncn(Cc3nc([C@H]4[C@@H]5CN(c6cccc(Cl)c6)C[C@@H]54)no3)c(=O)c12` yielded a CLhep predicted [1] of 14 mL/min/kg, a pIC50 [2] of 7.30 and a logD [3] of 2.6. The CLhep predicted [4] was 27 mL/min/kg.
Molecule `Cn1cnc2ncn(Cc3nn([C@@H]4CC[C@@H](c5ccc(Cl)cc5)C4)c(=O)o3)c(=O)c21` has a CLhep predicted [1] of 12 mL/min/kg, a pIC50 [2] of 8.02 and a logD [3] of 2.4. It also gave a CLhep predicted [4] of 36 mL/min/kg.
Molecule `Cn1cnc2ncn(Cc3nc([C@H]4[C@@H]5CN(c6cc(Cl)ccn6)C[C@@H]54)no3)c(=O)c21` has a half-life [5] of 1.8 h, a CLhep predicted [6] of 36 mL/min/kg and a Vd [7] of 1.8 L/kg. For the same molecule, the fraction unbound [8] was 0.087, the inhibition [27] was 64% and the inhibition [28] was 48%. It also gave a clearance [9] of 12 mL/min/kg, a pEC50 [10] of 6.66 and a pIC50 [2] of 7.60. The solubility kinetic [12] was 97 µM (≈ 41.2 µg/mL), the Vduss [13] was 20.7 L/kg and the bioavailability [14] was 39%. It also gave a Papp A→B [16] of 17.3 ×10⁻⁶ cm/s, a logD [3] of 1.8 and an inhibition [29] of 94%. For the same molecule, the inhibition [30] was 59%, the pIC50 [19] was 7.74 and the fraction unbound [20] was 0.07.
`Cn1cnc2ncn(Cc3nn(C[C@H](F)c4ccc(Cl)cc4)c(=O)o3)c(=O)c21` showed a half-life [5] of 1.4 h, a CLhep predicted [6] of 24 mL/min/kg and a Vd [7] of 1.3 L/kg. It also gave a CLhep predicted [1] of 5.6 mL/min/kg, a clearance [9] of 17 mL/min/kg and a pEC50 [10] of 6.41. For the same molecule, the pIC50 [2] was 7.70, the inhibition [31] was 37% and the solubility kinetic [12] was 120 µM (≈ 48.6 µg/mL). The Vduss [13] was 3.14 L/kg, the bioavailability [14] was 53% and the Papp A→B [16] was 9 ×10⁻⁶ cm/s. The logD [3] was 1.2, the inhibition [32] was 100% and the inhibition [33] was 20%. It also gave a CLhep predicted [4] of 28 mL/min/kg, a pIC50 [19] of 7.74 and a fraction unbound [20] of 0.334. For the same molecule, the inhibition [34] was 20%.
